Our source for the EC50 values is patent publication US11452717B2, “Small molecule activators of nicotinamide phosphoribosyltransferase (NAMPT) and uses thereof” (Sanford Burnham Prebys Medical Discovery Institute, priority 2017, dated 2022).

In general, pEC50 refers to −log10 of the EC50, conventionally taken in molar units. A high value points to a low EC50.

pEC50: −log10 of the molar value.

The assay concerns the target NAMPT enzyme (Homo sapiens (Human), UniProt P43490). The assay is described as follows: Enzyme Assay and NMN Detection (NAMPT reaction, fluorescence detection of NMN). Format: biochemical. Conditions: NAMPT activation, NMN formation. A digest of the protocol:
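Reaction in 50 mM HEPES pH 7.5, 5 mM MgCl2, 0.1% Prionex, 0.005% Tween 20, 1 mM TCEP at room temperature, with 16 nM NAMPT, 120 uM ATP, 5 uM nicotinamide, 6.25 uM PRPP, 0.04 U/ml pyrophosphatase for 2 h. Stopped with acetophenone/KOH then formic acid; NMN quantified by fluorescence (ex380/em460) against calibration curve.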

Sequence of NAMPT enzyme (P43490 whole entry, species assumed): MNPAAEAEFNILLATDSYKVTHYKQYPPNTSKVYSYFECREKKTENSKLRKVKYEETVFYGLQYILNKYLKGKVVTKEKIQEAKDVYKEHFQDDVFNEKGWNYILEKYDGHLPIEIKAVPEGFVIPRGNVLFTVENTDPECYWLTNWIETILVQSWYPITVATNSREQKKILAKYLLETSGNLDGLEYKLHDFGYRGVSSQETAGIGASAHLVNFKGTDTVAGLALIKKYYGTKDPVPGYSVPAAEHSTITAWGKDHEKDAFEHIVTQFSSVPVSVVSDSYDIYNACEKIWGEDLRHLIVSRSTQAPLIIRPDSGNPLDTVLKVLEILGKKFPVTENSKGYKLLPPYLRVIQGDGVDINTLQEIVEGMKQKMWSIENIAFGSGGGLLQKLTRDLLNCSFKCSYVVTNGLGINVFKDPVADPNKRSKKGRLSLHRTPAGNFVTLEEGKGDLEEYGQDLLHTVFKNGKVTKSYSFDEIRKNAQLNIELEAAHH

`O=C(NCc1cn[nH]c1)Nc1ccc(Nc2ncc(-c3ccccc3)s2)cc1` [1-((1H-Pyrazol-4-yl)methyl)-3-(4-((5-phenylthiazol-2-yl)amino)phenyl)urea] gave a pEC50 (Table B-4) of 5.70 to 7.00.

Take `O=C(NCc1cn[nH]c1)Nc1ccc(S(=O)(=O)c2ccccc2-c2ccccc2)cc1` [1-((1H-Pyrazol-4-yl)methyl)-3-(4-([1,1′-biphenyl]-2-ylsulfonyl)phenyl)urea]: the pEC50 (Table B-4) is over 7.00.

Under “Table B-4”, `O=C(NCc1cn[nH]c1)Nc1ccc(S(=O)(=O)c2cccc(-c3ccccc3)c2)cc1` [1-((1H-Pyrazol-4-yl)methyl)-3-(4-([1,1′-biphenyl]-3-ylsulfonyl)phenyl)urea] gave a pEC50 of 5.70 to 7.00.

`O=C(NCc1cn[nH]c1)Nc1ccc(-c2nc3ccccc3s2)cc1` [1-((1H-Pyrazol-4-yl)methyl)-3-(4-(benzo[d]thiazol-2-yl)phenyl)urea]: under “Table B-4”, the pEC50 is 4.70 to 5.30.

Turning to `O=C(NCc1cn[nH]c1)Nc1ccc(Nc2nc3ccccc3s2)cc1` [1-((1H-Pyrazol-4-yl)methyl)-3-(4-(benzo[d]thiazol-2-ylamino)phenyl)urea], the pEC50 (Table B-4) is under 4.70.

Where the note is “Table B-4”, `O=C(NCc1cn[nH]c1)Nc1ccc(S(=O)(=O)c2ccccn2)cc1` [1-((1H-Pyrazol-4-yl)methyl)-3-(4-(pyridin-2-ylsulfonyl)phenyl)urea] showed a pEC50 of 5.70 to 7.00.

`O=C(NCc1cn[nH]c1)Nc1ccc(S(=O)(=O)c2ccncc2)cc1` [1-((1H-Pyrazol-4-yl)methyl)-3-(4-(pyridin-4-ylsulfonyl)phenyl)urea] showed a pEC50 (Table B-4) of 5.70 to 7.00.

Regarding `O=C(NCc1cn[nH]c1)Nc1ccc(S(=O)(=O)c2cncnc2)cc1` [1-((1H-Pyrazol-4-yl)methyl)-3-(4-(pyrimidin-5-ylsulfonyl)phenyl)urea], the pEC50 (Table B-4) is 5.70 to 7.00.

Under “Table B-5”, `O=C(NCc1cnco1)Nc1ccc(-c2ncc(-c3ccccc3)s2)cc1` [1-(Oxazol-5-ylmethyl)-3-(4-(5-phenylthiazol-2-yl)phenyl)urea] showed a pEC50 of 4.70 to 5.30.

In the case of `O=C(NCc1cnco1)Nc1ccc(S(=O)(=O)c2cccc(C(F)(F)F)c2)cc1` [1-(Oxazol-5-ylmethyl)-3-(4-((3-(trifluoromethyl)phenyl)sulfonyl)phenyl)urea], the pEC50 (Table B-5) was 5.70 to 7.00.

Turning to `O=C(NCc1cnco1)Nc1ccc(S(=O)(=O)c2ccc(C(F)(F)F)cc2)cc1` [1-(Oxazol-5-ylmethyl)-3-(4-((4-(trifluoromethyl)phenyl)sulfonyl)phenyl)urea], the pEC50 (Table B-5) is 5.70 to 7.00.

With `O=C(NCc1cnco1)Nc1ccc(Nc2nc(-c3ccccc3)cs2)cc1` [1-(Oxazol-5-ylmethyl)-3-(4-((4-phenylthiazol-2-yl)amino)phenyl)urea], the pEC50 (Table B-5) is 5.30 to 5.70.

Where the note is “Table B-5”, `O=C(NCc1cnco1)Nc1ccc(Nc2ncc(-c3ccccc3)s2)cc1` [1-(Oxazol-5-ylmethyl)-3-(4-((5-phenylthiazol-2-yl)amino)phenyl)urea] showed a pEC50 of 5.70 to 7.00.

`O=C(NCc1cnco1)Nc1ccc(S(=O)(=O)c2ccccn2)cc1` [1-(Oxazol-5-ylmethyl)-3-(4-(pyridin-2-ylsulfonyl)phenyl)urea] showed a pEC50 (Table B-5) of 5.70 to 7.00.

Compound `O=C(NCc1cnco1)Nc1ccc(S(=O)(=O)c2ccncc2)cc1` [1-(Oxazol-5-ylmethyl)-3-(4-(pyridin-4-ylsulfonyl)phenyl)urea] had a pEC50 (Table B-5) of 5.70 to 7.00.

For the setting “Table B-3”, `O=C(NCc1ccccn1)Nc1ccc(OC(F)(F)F)cc1` [1-(Pyridin-2-ylmethyl)-3-(4-(trifluoromethoxy)phenyl)urea] had a pEC50 of under 4.70.

The compound `O=C(NCc1ccccn1)Nc1ccc(C(F)(F)F)cc1` [1-(Pyridin-2-ylmethyl)-3-(4-(trifluoromethyl)phenyl)urea] gave a pEC50 (Table B-3) of under 4.70.

On to `Cc1ccc(NC(=O)NCc2ccccn2)cc1` [1-(Pyridin-2-ylmethyl)-3-(p-tolyl)urea], for which, where the note is “Table B-3”, the pEC50 is under 4.70.

For the compound `O=C(NCc1cccnc1)Nc1ccc(OC(F)(F)F)cc1` [1-(Pyridin-3-ylmethyl)-3-(4-(trifluoromethoxy)phenyl)urea], the pEC50 (Table B-3) was under 4.70.

Consider `O=C(NCc1cccnc1)Nc1ccc(C(F)(F)F)cc1` [1-(Pyridin-3-ylmethyl)-3-(4-(trifluoromethyl)phenyl)urea], for which the pEC50 (Table B-3) is under 4.70.

`Cc1ccc(NC(=O)NCc2cccnc2)cc1` [1-(Pyridin-3-ylmethyl)-3-(p-tolyl)urea] had a pEC50 (Table B-3) of under 4.70.

For the compound `O=C(NCc1ccncc1)Nc1ccc(C(=O)N2CCc3ccccc3C2)cc1` [1-(Pyridin-4-ylmethyl)-3-(4-(1,2,3,4-tetrahydroisoquinoline-2-carbonyl)phenyl)urea], the pEC50 (Table B-2) is 5.70 to 7.00.

`O=C(NCc1ccncc1)Nc1ccc(S(=O)(=O)c2cccc(C(F)(F)F)c2)cc1` [1-(Pyridin-4-ylmethyl)-3-(4-((3-(trifluoromethyl)phenyl)sulfonyl)phenyl)urea] showed a pEC50 (Table B-6) of over 7.00.

As to `O=C(NCc1ccncc1)Nc1ccc(S(=O)(=O)c2ccncc2)cc1` [1-(Pyridin-4-ylmethyl)-3-(4-(pyridin-4-ylsulfonyl)phenyl)urea], the pEC50 (Table B-6) is 5.70 to 7.00.

Compound `O=C(NCc1ccncc1)Nc1ccc(C(=O)N2CCCC2)cc1` [1-(Pyridin-4-ylmethyl)-3-(4-(pyrrolidine-1-carbonyl)phenyl)urea] showed a pEC50 (Table B-2) of 4.70 to 5.30.

For `O=C(NCc1ccncc1)Nc1ccc(OC(F)(F)F)cc1` [1-(Pyridin-4-ylmethyl)-3-(4-(trifluoromethoxy)phenyl)urea], the pEC50 (Table B-2) is under 4.70.

Under “Table B-2”, `O=C(NCc1ccncc1)Nc1ccc(C(F)(F)F)cc1` [1-(Pyridin-4-ylmethyl)-3-(4-(trifluoromethyl)phenyl)urea] showed a pEC50 of 4.70 to 5.30.

Under “Table B-2”, `Cc1ccc(NC(=O)NCc2ccncc2)cc1` [1-(Pyridin-4-ylmethyl)-3-(p-tolyl)urea] gave a pEC50 of under 4.70.

Regarding `O=C(NCc1cnco1)Nc1ccc(S(=O)(=O)c2ccccc2C(F)(F)F)cc1` [1-Oxazol-5-ylmethyl-3-[4-(2-trifluoromethyl-benzenesulfonyl)-phenyl]-urea], the negative-log EC50 (pEC50) (Table B-5) was 5.70 to 7.00.

For `O=C(NCc1cnco1)Nc1ccc(S(=O)(=O)c2ccc(OC(F)(F)F)cc2)cc1` [1-Oxazol-5-ylmethyl-3-[4-(4-trifluoromethoxy-benzenesulfonyl)-phenyl]-urea], where the note is “Table B-5”, the pEC50 was 5.70 to 7.00.

In turn, `O=C(NCc1cnco1)Nc1ccc(S(=O)(=O)c2cnccn2)cc1` [1-Oxazol-5-ylmethyl-3-[4-(pyrazine-2-sulfonyl)-phenyl]-urea] had a pEC50 (Table B-5) of 5.70 to 7.00.

For `O=C(NCc1cnco1)Nc1ccc(S(=O)(=O)c2cccnc2)cc1` [1-Oxazol-5-ylmethyl-3-[4-(pyridine-3-sulfonyl)-phenyl]-urea], where the note is “Table B-5”, the pEC50 was 5.70 to 7.00.

With `O=C(NCc1cnco1)Nc1ccc(S(=O)(=O)c2ncccn2)cc1` [1-Oxazol-5-ylmethyl-3-[4-(pyrimidine-2-sulfonyl)-phenyl]-urea], the pEC50 (Table B-5) was 4.70 to 5.30.

Turning to `O=C(NCc1cnco1)Nc1ccc(S(=O)(=O)c2nccs2)cc1` [1-Oxazol-5-ylmethyl-3-[4-(thiazole-2-sulfonyl)-phenyl]-urea], the pEC50 (Table B-5) is 5.70 to 7.00.

As to `Cc1ccccc1S(=O)(=O)c1ccc(NC(=O)NCc2cnco2)cc1` [1-Oxazol-5-ylmethyl-3-[4-(toluene-2-sulfonyl)-phenyl]-urea], the pEC50 (Table B-5) was 5.70 to 7.00.

With `Cc1cccc(S(=O)(=O)c2ccc(NC(=O)NCc3cnco3)cc2)c1` [1-Oxazol-5-ylmethyl-3-[4-(toluene-3-sulfonyl)-phenyl]-urea], the pEC50 (Table B-5) was 5.70 to 7.00.

Where the note is “Table B-5”, `Cc1ccc(S(=O)(=O)c2ccc(NC(=O)NCc3cnco3)cc2)cc1` [1-Oxazol-5-ylmethyl-3-[4-(toluene-4-sulfonyl)-phenyl]-urea] showed a pEC50 of 5.30 to 5.70.

In turn, `O=C(NCc1cnco1)Nc1ccc(S(=O)(=O)C2CCN(C3CCOCC3)CC2)cc1` [1-Oxazol-5-ylmethyl-3-{4-[1-(tetrahydro-pyran-4-yl)-piperidine-4-sulfonyl]-phenyl}-urea] gave a pEC50 (Table B-5) of 5.70 to 7.00.

`O=C(NCc1ccncc1)Nc1ccc(S(=O)(=O)c2cncs2)cc1` [1-Pyridin-4-ylmethyl)-3-(4-(thiazol-5-ylsulfonyl)phenyl)urea] gave a pEC50 (Table B-6) of 5.70 to 7.00.

With `O=C(NCc1ccncc1)Nc1ccc(S(=O)(=O)c2ccccc2OC(F)(F)F)cc1` [1-Pyridin-4-ylmethyl-3-[4-(2-trifluoromethoxy-benzenesulfonyl)-phenyl]-urea], under “Table B-6”, the pEC50 was over 7.00.

In turn, `O=C(NCc1ccncc1)Nc1ccc(S(=O)(=O)c2ccccc2C(F)(F)F)cc1` [1-Pyridin-4-ylmethyl-3-[4-(2-trifluoromethyl-benzenesulfonyl)-phenyl]-urea] showed a pEC50 (Table B-6) of 5.70 to 7.00.

Turning to `O=C(NCc1ccncc1)Nc1ccc(S(=O)(=O)c2cccc(OC(F)(F)F)c2)cc1` [1-Pyridin-4-ylmethyl-3-[4-(3-trifluoromethoxy-benzenesulfonyl)-phenyl]-urea], the pEC50 (Table B-6) was over 7.00.

With `O=C(NCc1ccncc1)Nc1ccc(S(=O)(=O)c2ccc(OC(F)(F)F)cc2)cc1` [1-Pyridin-4-ylmethyl-3-[4-(4-trifluoromethoxy-benzenesulfonyl)-phenyl]-urea], the pEC50 (Table B-6) is 5.70 to 7.00.

Under “Table B-6”, `O=C(NCc1ccncc1)Nc1ccc(S(=O)(=O)c2ncccn2)cc1` [1-Pyridin-4-ylmethyl-3-[4-(pyrimidine-2-sulfonyl)-phenyl]-urea] gave a pEC50 of 5.30 to 5.70.

As to `Cc1ccccc1S(=O)(=O)c1ccc(NC(=O)NCc2ccncc2)cc1` [1-Pyridin-4-ylmethyl-3-[4-(toluene-2-sulfonyl)-phenyl]-urea], the pEC50 (Table B-6) is 5.70 to 7.00.

Where the note is “Table B-6”, `Cc1cccc(S(=O)(=O)c2ccc(NC(=O)NCc3ccncc3)cc2)c1` [1-Pyridin-4-ylmethyl-3-[4-(toluene-3-sulfonyl)-phenyl]-urea] gave a negative logarithm of the EC50 (pEC50) of 5.70 to 7.00.

For `Cc1ccc(S(=O)(=O)c2ccc(NC(=O)NCc3ccncc3)cc2)cc1` [1-Pyridin-4-ylmethyl-3-[4-(toluene-4-sulfonyl)-phenyl]-urea], the pEC50 (Table B-6) was over 7.00.

`O=C(NCc1ccncc1)Nc1ccc(S(=O)(=O)N2Cc3ccccc3C2)cc1` [1-[4-(1,3-Dihydro-isoindole-2-sulfonyl)-phenyl]-3-pyridin-4-ylmethyl-urea]: the pEC50 (Table B-2) is 5.70 to 7.00.
